Data published in US20250186408A1, “TREATMENT OF PHARMACORESISTANT EPILEPSY” (Katholieke Universiteit Leuven, priority 2021, published 2025).
Values after ≈ are worked out from the molar mass of the structure shown. Where two headings read alike, the source gives them in different places.

How the values were obtained:
Aqueous solubility = assay type: physicochemical
From the text: (§1) In vitro ADME profiling of compounds was done by Eurofins Panlabs Inc (St Charles, MO, USA) using their ADME-Tox service (Cat Ref P375, Tier 1 ADME Panel). […] (28). The atom-based log P calculation method, called OsirisP, uses as an increment system and adds contributions of every atom based on its atom type. The prediction engine distinguishes a total of 368 atom types and was optimized using a training set of more than 5000 molecules with experimentally determined log P values. The free prediction engine has proven to outperform many alternative calculation methods (29).
SGF, SIF and PBS buffers were prepared as follows: 34.2 mM NaCl, 84.7 mM HCl, 3.2 g/L pepsin (pH 2) for SGF, 50 mM KH2PO4, 38 mM NaOH, 10 g/L pancreatin (pH 7.5) for SIF and 137 mM NaCl, 2.7 mM KCl, 8.1 mM Na2HPO4 and 1.5 mM KH2PO4 (pH 7.4) for PBS. Test compounds were prepared at 200 μM concentrations in the corresponding buffer from a 10 mM stock solution (final solvent concentration of 2% DMSO). Buffer samples were mixed thoroughly followed by a 24 h incubation at room temperature. Samples were centrifuged and the supernatant was used for HPLC analysis. A calibration standard of the test compound was prepared at 200 μM in methanol/water (3:2 v/v) from the stock solution on the day of the analysis. Metoprolol, rifampicin, ketoconazole, phenytoin, haloperidol, simvastatin, diethylstilbestrol and tamoxifen were included in each assay. Aqueous solubility (μM) was determined by comparing peak areas.

Plasma protein binding = assay type: in vitro ADME; conditions: pH 7.4, human plasma
From the text: as §1
Human plasma, used as the protein containing matrix, was spiked with the test compound at 10 μM (final solvent concentration of 1% DMSO). The assay was performed in a 96-well format in a dialysis block (Teflon) with the dialysate compartment containing PBS (pH 7.4) and the sample side containing an equal volume of the spiked protein matrix. The plate was incubated at 37° C. for 4 h. After incubation, samples were taken from both compartments, diluted with the phosphate buffer, followed by the addition of acetonitrile and centrifugation. The supernatants were then used for HPLC-MS/MS analysis. Acebutolol, quinidine and warfarin were tested in each assay. The percentage bound to proteins and the recovery were calculated as follows: […]

HRH2 = HRH2 (Homo sapiens, UniProt P25021); experiment: cAMP HRH2 Antagonist; assay type: cell-based; conditions: for Emax: read-out: Max response
Procedure: cAMP Hunter cell lines were expanded from freezer stocks. […] For Gi agonist determination, cells were incubated with sample in the presence of EC80 forskolin to induce response. For both conditions, media was aspirated from cells and replaced with 15 μL 2:1 HBSS/10 mM HEPES:cAMP XS+ Ab reagent. […] 5 μL of 4× sample was added to cells and incubated at 37° C. or room temperature (RT) for 30 or 60 min. Final assay vehicle concentration was 1%. […] Media was aspirated from cells and replaced with 10 μL 1:1 HBSS/HEPES:cAMP XS+ Ab reagent. […] For Gi coupled GPCRs, EC80 forskolin was included. […] Compound activity was analyzed using CBIS data analysis suite (ChemInnovation, CA).

GABAA = GABAA (Homo sapiens, UniProt P14867+P18507+P47870); experiment: Ion Channel GABAA Blocker; assay type: cell-based; conditions: read-out: Max response
hERG = hERG (Homo sapiens, UniProt Q12809); experiment: Ion Channel hERG Blocker; assay type: cell-based; conditions: for Emax at 30 min: human, read-out: Max response; for IC50: read-out: RC50, result type IC50
nAChR (a4/b2) = nAChR (a4/b2) (Homo sapiens, UniProt P17787+P43681); experiment: Ion Channel nAChR (a4/b2) Opener; assay type: cell-based; conditions: for Emax: Ion Channel nAChR (a4/b2) Opener, read-out: Max response
DAT = target: T1, DAT (Homo sapiens, UniProt Q01959); experiment: Transporter DAT Blocker; assay type: cell-based; conditions: for Emax: Transporter DAT Blocker, read-out: Max response
T1 construct: Eurofins DiscoverX Corporation 87-1003DR; host or cells: unnamed cell lines
Procedure: After cell plating and incubation, media was removed an 25 μL of 1× compound in 1×HBSS/0.1% BSA was added. Compounds were incubated with cells for 30 min at 37° C. After compound incubation, 25 μL of 1× dye loading buffer (1× dye, 1×HBSS/20 mM HEPES) was added to the wells. Cells were incubated for 30-60 min at 37° C. After incubation, microplates were transferred to a PerkinElmer Envision™ instrument for fluorescent signal detection. […] For blocker mode assays, percentage of inhibition was calculated using the following formula: […]

CNR2 = CNR2 (Homo sapiens, UniProt P34972); experiment: cAMP CNR2 Agonist; conditions: for Emax: read-out: Max response
Procedure: (§2) In vitro pharmacological profiling of compounds was done against 78 functional assays for 47 common off-targets (30) by Eurofins DiscoverX Corporation (Fremont, CA, USA) using their SAFETYscan E/IC50 ELECT service (Cat Ref 87-1003DR, Safety47 Panel Dose Response). […] Compounds were tested in a range of 10 concentrations, following a 3-fold serial dilution, starting from 10 μM. The assays were performed utilizing the PathHunter enzyme fragment complementation (EFC) technology, FLIPR®-based cellular screening assays, and KINOMEscan kinase binding assays.
(§3) cAMP Hunter cell lines were expanded from freezer stocks. Prior to testing, cells were seeded in a total volume of 20 μL into white walled 384-well microplates and incubated at 37° C. cAMP modulation was determined using the DiscoverX HitHunter cAMP XS+ assay. For Gs agonist determination, cells were incubated with sample to induce response. For Gi agonist determination, cells were incubated with sample in the presence of EC80 forskolin to induce response. For both conditions, media was aspirated from cells and replaced with 15 μL 2:1 HBSS/10 mM HEPES:cAMP XS+ Ab reagent. Intermediate dilution of sample stocks was performed to generate 4× sample in assay buffer (containing 4×EC80 forskolin in the case of antagonist determination). 5 μL of 4× sample was added to cells and incubated at 37° C. or room temperature (RT) for 30 or 60 min. Final assay vehicle concentration was 1%. For antagonist determination, cells were pre-incubated with sample followed by agonist challenge at the EC80 concentration. Media was aspirated from cells and replaced with 10 μL 1:1 HBSS/HEPES:cAMP XS+ Ab reagent. 5 μL of 4× compound was added to the cells and incubated at 37° C. or RT for 30 min. 5 μL of 4×EC80 agonist was added to the cells and incubated at 37° C. or RT for 30 or 60 min. For Gi coupled GPCRs, EC80 forskolin was included. […] Microplates were read following signal generation with a PerkinElmer Envision™ instrument for chemiluminescent signal detection. Compound activity was analyzed using CBIS data analysis suite (ChemInnovation, CA).

CHRM2 = target: T2, CHRM2 (Homo sapiens, UniProt P08172); experiment: cAMP CHRM2 Agonist; conditions: for Emax: read-out: Max response
T2 sequence (P08172 1-466): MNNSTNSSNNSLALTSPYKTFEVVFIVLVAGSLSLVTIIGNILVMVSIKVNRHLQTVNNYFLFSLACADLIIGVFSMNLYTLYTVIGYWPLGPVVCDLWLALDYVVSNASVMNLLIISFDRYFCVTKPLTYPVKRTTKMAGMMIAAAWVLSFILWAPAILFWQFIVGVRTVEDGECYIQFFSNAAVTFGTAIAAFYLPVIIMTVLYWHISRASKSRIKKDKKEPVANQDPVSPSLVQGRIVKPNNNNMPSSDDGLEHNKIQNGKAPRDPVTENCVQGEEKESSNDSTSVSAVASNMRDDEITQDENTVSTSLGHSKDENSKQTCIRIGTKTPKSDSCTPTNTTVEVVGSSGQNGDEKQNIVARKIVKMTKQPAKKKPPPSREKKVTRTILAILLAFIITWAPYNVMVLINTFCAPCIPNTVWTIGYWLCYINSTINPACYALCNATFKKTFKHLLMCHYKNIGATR
Procedure: as §2, §3

OPRD1 = OPRD1 (Homo sapiens, UniProt P41143); experiment: cAMP OPRD1 Antagonist; conditions: for Emax: read-out: Max response
Procedure: In vitro pharmacological profiling of compounds was done against 78 functional assays for 47 common off-targets (30) by Eurofins DiscoverX Corporation (Fremont, CA, USA) using their SAFETYscan E/IC50 ELECT service (Cat Ref 87-1003DR, Safety47 Panel Dose Response). […] Compounds were tested in a range of 10 concentrations, following a 3-fold serial dilution, starting from 10 μM.
as §3

CHRM3 = CHRM3 (Homo sapiens, UniProt P20309); experiment: Calcium Flux CHRM3 Antagonist; conditions: for Emax: read-out: Max response
Procedure: as §2
Prior to testing, cells (10,000 cells/well) were expanded from freezer stocks and seeded into a total volume of 50 μL into black walled, clear-bottom, Poly-D-lysine coated 384-well microplates and incubated at 37° C. […] Assays were performed in 1× dye loading buffer consisting of 1× Dye (DiscoverX, Calcium No Wash^PLUS kit, Catalog No. 90-0091), 1× Additive A and 2.5 mM Probenecid in HBSS/20 mM HEPES. Probenecid was prepared fresh. Prior to testing, media was aspirated from cells and replaced with 25 μL dye loading buffer. Cells were incubated for 45 min at 37° C. and then 20 min at RT. For agonist determination, 25 μL of 2× compound in HBSS/20 mM HEPES was added using a FLIPR Tetra (MDS). For antagonist determination, cells were pre-incubated with sample followed by agonist challenge at the EC80 concentration. 25 μL of 2× sample was added and cells were incubated for 30 min at RT in the dark to equilibrate plate temperature. After incubation, antagonist determination was initiated by addition of 25 μL of 1× compound with 3×EC80 agonist using FLIPR. For both agonist and antagonist formats, activity was measure on a FLIPR Tetra (MDS). Calcium mobilization was monitored for 2 min with a 5 sec baseline read.
FLIPR read—Area under the curve, was calculated for the entire 2 min read. Compound activity was analysed using CBIS data analysis suite (ChemInnovation, CA).

[1] = aqueous buffer, kinetic from dmso stock, PBS pH 7.4, tested at 200 μM, 24 h room temperature, read-out: aqueous solubility PBS (pH 7.4)
[2] = fassgf or other biorelevant, kinetic from dmso stock, simulated intestinal fluid pH 7.5, tested at 200 μM, read-out: aqueous solubility simulated intestinal fluid
[3] = kinetic from dmso stock, simulated gastric fluid pH 2, tested at 200 μM, read-out: aqueous solubility simulated gastric fluid

T1 sequence (Q01959 whole entry): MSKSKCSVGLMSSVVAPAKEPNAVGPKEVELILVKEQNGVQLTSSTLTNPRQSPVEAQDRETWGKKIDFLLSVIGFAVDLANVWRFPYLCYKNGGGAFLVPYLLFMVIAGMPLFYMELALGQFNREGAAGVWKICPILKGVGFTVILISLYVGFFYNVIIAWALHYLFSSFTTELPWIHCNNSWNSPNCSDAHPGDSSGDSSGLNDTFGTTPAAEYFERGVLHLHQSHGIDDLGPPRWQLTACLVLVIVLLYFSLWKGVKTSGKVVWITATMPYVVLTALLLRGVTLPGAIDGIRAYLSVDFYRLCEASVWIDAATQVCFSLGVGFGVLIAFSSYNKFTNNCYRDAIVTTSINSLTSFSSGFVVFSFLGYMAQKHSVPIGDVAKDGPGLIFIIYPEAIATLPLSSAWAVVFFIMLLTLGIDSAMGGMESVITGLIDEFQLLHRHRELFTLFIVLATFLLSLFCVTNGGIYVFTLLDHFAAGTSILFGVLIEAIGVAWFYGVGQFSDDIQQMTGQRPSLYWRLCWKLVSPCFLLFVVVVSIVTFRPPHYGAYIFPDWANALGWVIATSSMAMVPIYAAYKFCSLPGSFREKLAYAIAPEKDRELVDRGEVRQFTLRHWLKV
Chain of CNR2 (P34972 whole entry): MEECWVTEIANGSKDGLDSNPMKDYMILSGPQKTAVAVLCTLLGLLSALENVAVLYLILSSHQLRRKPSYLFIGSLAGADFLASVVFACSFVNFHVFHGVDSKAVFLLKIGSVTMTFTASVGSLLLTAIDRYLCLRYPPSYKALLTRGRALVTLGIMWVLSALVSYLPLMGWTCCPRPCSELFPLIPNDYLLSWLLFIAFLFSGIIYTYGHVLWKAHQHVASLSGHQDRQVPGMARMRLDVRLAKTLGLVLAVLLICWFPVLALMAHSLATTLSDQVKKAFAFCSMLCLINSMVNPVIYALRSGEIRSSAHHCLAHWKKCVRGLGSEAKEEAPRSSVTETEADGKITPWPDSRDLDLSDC
Chain of hERG (Q12809 whole entry): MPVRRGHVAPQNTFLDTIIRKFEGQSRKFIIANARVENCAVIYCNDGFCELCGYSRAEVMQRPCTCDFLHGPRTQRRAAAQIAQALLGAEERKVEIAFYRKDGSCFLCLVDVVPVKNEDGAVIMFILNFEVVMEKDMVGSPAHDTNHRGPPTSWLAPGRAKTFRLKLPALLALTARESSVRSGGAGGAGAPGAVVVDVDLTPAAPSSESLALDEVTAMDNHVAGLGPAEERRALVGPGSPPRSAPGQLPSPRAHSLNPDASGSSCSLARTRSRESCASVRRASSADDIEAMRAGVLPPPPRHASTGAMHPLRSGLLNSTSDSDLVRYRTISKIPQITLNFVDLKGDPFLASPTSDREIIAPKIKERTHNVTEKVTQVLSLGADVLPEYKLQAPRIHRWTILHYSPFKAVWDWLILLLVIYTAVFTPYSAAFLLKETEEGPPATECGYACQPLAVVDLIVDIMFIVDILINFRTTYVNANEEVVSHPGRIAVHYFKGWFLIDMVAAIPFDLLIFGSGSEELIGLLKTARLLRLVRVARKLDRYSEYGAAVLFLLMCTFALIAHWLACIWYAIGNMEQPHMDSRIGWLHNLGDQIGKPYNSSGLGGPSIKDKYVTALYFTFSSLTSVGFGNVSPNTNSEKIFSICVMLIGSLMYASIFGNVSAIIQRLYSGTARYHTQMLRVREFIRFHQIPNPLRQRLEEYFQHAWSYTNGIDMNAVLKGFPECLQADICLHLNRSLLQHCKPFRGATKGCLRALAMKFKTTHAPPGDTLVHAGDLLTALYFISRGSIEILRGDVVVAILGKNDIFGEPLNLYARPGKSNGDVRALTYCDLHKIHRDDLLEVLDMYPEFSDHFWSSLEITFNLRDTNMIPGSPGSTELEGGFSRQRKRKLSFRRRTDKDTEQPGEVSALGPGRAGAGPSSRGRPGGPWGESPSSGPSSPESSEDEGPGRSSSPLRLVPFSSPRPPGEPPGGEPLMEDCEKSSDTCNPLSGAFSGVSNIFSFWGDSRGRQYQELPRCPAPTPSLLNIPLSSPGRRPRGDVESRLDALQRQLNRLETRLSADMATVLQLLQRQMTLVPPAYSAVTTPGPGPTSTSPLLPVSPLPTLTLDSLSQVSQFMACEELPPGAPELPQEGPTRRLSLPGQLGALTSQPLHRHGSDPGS
Chain of OPRD1 (P41143 whole entry): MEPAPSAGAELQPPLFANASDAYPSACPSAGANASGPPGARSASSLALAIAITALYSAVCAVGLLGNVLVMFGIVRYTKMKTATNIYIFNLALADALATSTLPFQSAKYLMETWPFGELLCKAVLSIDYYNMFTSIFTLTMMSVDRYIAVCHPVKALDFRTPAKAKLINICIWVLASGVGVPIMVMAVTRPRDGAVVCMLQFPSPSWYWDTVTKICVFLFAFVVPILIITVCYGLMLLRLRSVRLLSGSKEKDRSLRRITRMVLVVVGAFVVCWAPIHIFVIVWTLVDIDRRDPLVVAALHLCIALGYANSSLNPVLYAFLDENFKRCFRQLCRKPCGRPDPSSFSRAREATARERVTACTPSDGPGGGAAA
Chain of nAChR (a4/b2) (P43681 29-627 limits assumed): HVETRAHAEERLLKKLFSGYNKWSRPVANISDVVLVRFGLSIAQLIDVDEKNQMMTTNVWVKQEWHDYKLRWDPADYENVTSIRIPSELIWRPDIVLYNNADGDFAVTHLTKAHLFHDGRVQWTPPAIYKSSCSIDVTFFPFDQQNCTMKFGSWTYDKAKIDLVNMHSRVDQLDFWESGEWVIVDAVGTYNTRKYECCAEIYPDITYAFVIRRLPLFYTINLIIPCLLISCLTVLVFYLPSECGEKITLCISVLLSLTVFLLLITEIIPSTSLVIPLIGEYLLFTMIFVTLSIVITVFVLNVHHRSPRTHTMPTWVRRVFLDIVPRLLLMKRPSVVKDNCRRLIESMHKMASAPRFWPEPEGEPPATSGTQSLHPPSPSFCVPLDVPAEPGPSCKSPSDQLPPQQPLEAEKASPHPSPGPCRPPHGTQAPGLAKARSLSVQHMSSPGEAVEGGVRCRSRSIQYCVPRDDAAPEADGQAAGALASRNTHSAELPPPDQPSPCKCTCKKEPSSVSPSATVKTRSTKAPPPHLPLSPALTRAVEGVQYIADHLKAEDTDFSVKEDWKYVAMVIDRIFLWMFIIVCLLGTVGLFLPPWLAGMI
Chain of nAChR (a4/b2) (P17787 26-502): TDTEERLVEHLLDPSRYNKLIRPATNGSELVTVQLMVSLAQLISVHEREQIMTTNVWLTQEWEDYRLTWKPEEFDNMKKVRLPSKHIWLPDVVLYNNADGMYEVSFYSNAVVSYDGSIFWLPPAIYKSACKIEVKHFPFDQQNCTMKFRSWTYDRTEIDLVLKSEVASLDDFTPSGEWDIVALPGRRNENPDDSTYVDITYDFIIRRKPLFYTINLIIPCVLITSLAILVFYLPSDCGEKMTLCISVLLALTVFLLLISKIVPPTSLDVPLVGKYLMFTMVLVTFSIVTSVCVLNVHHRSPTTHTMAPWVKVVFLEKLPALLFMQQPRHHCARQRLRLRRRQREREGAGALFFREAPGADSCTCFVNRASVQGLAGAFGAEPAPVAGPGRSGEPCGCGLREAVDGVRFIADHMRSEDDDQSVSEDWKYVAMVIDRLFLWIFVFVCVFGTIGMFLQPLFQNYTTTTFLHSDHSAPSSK
Chain of HRH2 (P25021 whole entry): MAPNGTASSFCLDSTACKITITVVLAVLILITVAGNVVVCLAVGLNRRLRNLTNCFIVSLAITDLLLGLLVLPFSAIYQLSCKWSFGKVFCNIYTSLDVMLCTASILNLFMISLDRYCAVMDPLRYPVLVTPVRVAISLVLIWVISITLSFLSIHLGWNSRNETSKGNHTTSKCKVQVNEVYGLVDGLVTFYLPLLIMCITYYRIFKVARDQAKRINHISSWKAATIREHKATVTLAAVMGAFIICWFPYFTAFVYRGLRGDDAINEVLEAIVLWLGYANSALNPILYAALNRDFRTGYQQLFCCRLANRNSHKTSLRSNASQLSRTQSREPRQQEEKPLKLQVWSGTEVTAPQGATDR
Chain of CHRM3 (P20309 whole entry): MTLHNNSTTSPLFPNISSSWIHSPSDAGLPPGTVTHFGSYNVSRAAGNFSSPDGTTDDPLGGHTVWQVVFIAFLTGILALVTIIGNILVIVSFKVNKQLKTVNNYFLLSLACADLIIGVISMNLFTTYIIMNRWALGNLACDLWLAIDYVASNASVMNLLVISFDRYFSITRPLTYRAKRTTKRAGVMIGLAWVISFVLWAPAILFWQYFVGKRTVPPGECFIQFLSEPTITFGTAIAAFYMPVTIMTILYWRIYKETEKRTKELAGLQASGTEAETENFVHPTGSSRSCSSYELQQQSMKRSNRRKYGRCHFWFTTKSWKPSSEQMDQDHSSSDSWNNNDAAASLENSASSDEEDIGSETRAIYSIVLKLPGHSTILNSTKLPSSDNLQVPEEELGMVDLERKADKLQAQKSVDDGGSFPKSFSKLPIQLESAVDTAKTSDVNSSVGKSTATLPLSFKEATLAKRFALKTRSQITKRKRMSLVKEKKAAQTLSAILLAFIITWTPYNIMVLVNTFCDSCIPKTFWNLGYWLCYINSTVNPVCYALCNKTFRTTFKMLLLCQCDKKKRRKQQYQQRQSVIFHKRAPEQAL

Compound	solubility at 24 h (Aqueous solubility; [1]) [µM]	solubility at 24 h (Aqueous solubility; [2]) [µM]	solubility at 24 h (Aqueous solubility; [3]) [µM]	fraction unbound at 4 h, 10 μM (Plasma protein binding)	Emax (GABAA) [%]	Emax at 30 min (hERG) [%]	IC50 (hERG) [µM]	EC50 (nAChR (a4/b2)) [µM]	Emax (nAChR (a4/b2)) [%]	IC50 (DAT) [µM]	Emax (DAT) [%]	EC50 (CNR2) [µM]	Emax (CNR2) [%]	EC50 (CHRM2) [µM]	Emax (CHRM2) [%]	IC50 (OPRD1) [µM]	Emax (OPRD1) [%]	IC50 (CHRM3) [µM]	Emax (CHRM3) [%]	also measured
CC(C)(C)c1ccc(C#CC(O)c2ccccc2)cc1 (racemic) [Compound 3.3, rac-3-(4-(tert-butyl)phenyl)-1-phenylprop-2-yn-1-ol]	17.7 (≈ 4.68 µg/mL)	102 (≈ 27.1 µg/mL)	24.5 (≈ 6.48 µg/mL)	0.002	8.7	3.8	> 10	> 10	0	> 10	0	> 10	38.1	> 10	0	> 10	5.9	> 10	0	IC50 (HRH2): > 10 µM; Emax (HRH2): 2.7%
Clc1cccc(C#Cc2n[nH]c3ncccc23)c1 [Compound 10.1, 3-((3-chlorophenyl)ethynyl)-1H-pyrazolo[3,4-b]pyridine]	< 0.1	26.7 (≈ 6.77 µg/mL)	26.7 (≈ 6.77 µg/mL)	0.0035	5.2	6.6	> 10	> 10	0	> 10	33.1	> 10	49.3	> 10	32.5	> 10	0	> 10	0	solubility at 24 h (Aqueous solubility; PBS pH 7.4, tested at 200 μM, 24 h room temperature, read-out: aqueous solubility PBS (pH 7.4)): <0.1 µM; Emax (HRH2; cAMP HRH2 Antagonist): 13.9%; IC50 (HRH2; cAMP HRH2 Antagonist, read-out: RC50, result type IC50): > 10 µM
